Measurements reported in patent US20060069132A1, “Azolecarboxamide herbicides” (priority 2004, published 2006).

Assays:
barnyardgrass [1] = assay: Test B pre-/postemergence herbicide test; format: in vivo, Echinochloa crus-galli; conditions: for Barnyardgrass plant response rating: scale 0 (no effect) to 100 (complete control)
Procedure, shortened: (§1)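 Pre: seeds sown, then sprayed. Post: 1–4-leaf plants (2–18 cm) sprayed at the same time. Paddy: flooded, treated at 2-leaf stage. Formulation: non-phytotoxic solvent with surfactant. Greenhouse 13–15 days; visual 0–100 score relative to controls.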

Surinam grass = assay: Test B pre-/postemergence herbicide test; format: in vivo, Urochloa decumbens; conditions: for Surinam Grass plant response rating: scale 0 (no effect) to 100 (complete control)
Procedure, shortened: (§2)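 Test chemicals in a non-phytotoxic solvent mixture with surfactant were applied preemergence to seeded species and postemergence to plants 2-18 cm tall (1- to 4-leaf stage); rice and barnyardgrass were also tested in a flooded paddy at the 2-leaf stage. Visual rating versus controls after 13-15 days in greenhouse, scale 0 (no effect) to 100 (complete control).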

cocklebur = assay: Test B pre-/postemergence herbicide test; format: in vivo, Xanthium strumarium; conditions: for Cocklebur plant response rating: scale 0 (no effect) to 100 (complete control)
Procedure, shortened: as §1

corn = assay: Test B pre-/postemergence herbicide test; format: in vivo, Zea mays; conditions: for Corn plant response rating: scale 0 (no effect) to 100 (complete control)
Procedure, shortened: as §2

large crabgrass = assay: Test B pre-/postemergence herbicide test; format: in vivo, Digitaria sanguinalis; conditions: for Crabgrass, Large plant response rating: scale 0 (no effect) to 100 (complete control)
Procedure, shortened: as §2

giant foxtail = assay: Test B pre-/postemergence herbicide test; format: in vivo, Setaria faberi; conditions: for Foxtail, Giant plant response rating: scale 0 (no effect) to 100 (complete control)
Procedure, shortened: as §2

lambsquarters = assay: Test B pre-/postemergence herbicide test; format: in vivo, Chenopodium album; conditions: for Lambsquarters plant response rating: scale 0 (no effect) to 100 (complete control)
Procedure, shortened: as §2

morningglory = assay: Test B pre-/postemergence herbicide test; format: in vivo, Ipomoea coccinea; conditions: for Morningglory plant response rating: scale 0 (no effect) to 100 (complete control)
Procedure, shortened: as §1

pigweed = assay: Test B pre-/postemergence herbicide test; format: in vivo, Amaranthus retroflexus; conditions: for Pigweed plant response rating: scale 0 (no effect) to 100 (complete control)
Procedure, shortened: as §2

velvetleaf = assay: Test B pre-/postemergence herbicide test; format: in vivo, Abutilon theophrasti; conditions: for Velvetleaf plant response rating: scale 0 (no effect) to 100 (complete control)
Procedure, shortened: as §2

blackgrass = assay: Test B postemergence herbicide test; format: in vivo, Alopecurus myosuroides; conditions: scale 0 (no effect) to 100 (complete control)
Procedure, shortened: (§3)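 Read-out: visual comparison with controls, scored 0 to 100, where 100 means complete control and 0 no effect. Formulated chemicals were applied postemergence to plants 2–18 cm tall (1- to 4-leaf), or to flooded-paddy plants at the 2-leaf stage, then held 13 to 15 days under glass.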

wheat = assay: Test B postemergence herbicide test; format: in vivo, Triticum aestivum; set-up: key to Wheat plant response rating: 0 = no effect, 100 = complete control
Procedure, shortened: (§4)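 Scale 0–100: zero equals no visible effect, 100 complete control, judged by eye relative to controls. Timing: 13 to 15 days in greenhouse post-treatment. Growth stage at spraying: two leaves (paddy) or one to four leaves, 2–18 cm (postemergence).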

wild oat = assay: Test B postemergence herbicide test; format: in vivo, Avena fatua; conditions: scale 0 (no effect) to 100 (complete control)
Procedure, shortened: as §4

rice [2] = assay: Test B flooded paddy test; format: in vivo, Oryza sativa; conditions: 1000 g ai/ha, scale 0 to 100 (0 no effect, 100 complete control)
Procedure, shortened: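 Paddy species grown to the 2-leaf stage under flooding; blackgrass sprayed postemergence at 2–18 cm (1- to 4-leaf stage). Plants kept in a greenhouse for 13 to 15 days, then visually rated against controls on 0 (no effect) to 100 (complete control).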

[3] = tested on: small flower umbrella sedge; assay: Test B flooded paddy test; format: in vivo, Cyperus difformis; conditions: 1000 g ai/ha, scale 0 to 100 (0 no effect, 100 complete control)
Procedure, shortened: as §3

ducksalad [4] = assay: Test B flooded paddy test; format: in vivo, Heteranthera limosa; conditions: 1000 g ai/ha, scale 0 to 100 (0 no effect, 100 complete control)
Procedure, shortened: as §3

barnyardgrass [5] = assay: Test B flooded paddy test; format: in vivo, Echinochloa crus-galli; conditions: 1000 g ai/ha, scale 0 to 100 (0 no effect, 100 complete control)
Procedure, shortened: as §3

rice [6] = assay: Test C flooded paddy test; format: in vivo, Oryza sativa
Procedure, shortened: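 Injury scored visually against controls on a 0 (no effect) to 100 (complete control) scale, 12 to 14 days after treatment in greenhouse. Flooded paddy plants treated at 2-leaf stage; postemergence plants at 1- to 4-leaf stage, 2 to 18 cm tall.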

[7] = tested on: smallflower umbrella sedge; assay: Test C flooded paddy test; format: in vivo, Cyperus difformis
ducksalad [8] = assay: Test C flooded paddy test; format: in vivo, Heteranthera limosa
barnyardgrass [9] = assay: Test C flooded paddy test; format: in vivo, Echinochloa crus-galli
Procedure, shortened: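 Scoring by eye, 12–14 days post-treatment, greenhouse-held plants vs. controls; 0 no effect, 100 complete control. Sprayed at 1–4 leaves (2–18 cm); paddy barnyardgrass at 2 leaves, flooded.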

[10] = 125 g ai/ha, 0 is no effect, 100 is complete control, preemergence
[11] = 125 g ai/ha, visual rating, postemergence
[12] = 125 g ai/ha, scale 0 to 100 (0 no effect, 100 complete control)
[13] = 250 g ai/ha, scale of 0 to 100, 0 is no effect, 100 is complete control
[14] = 500 g ai/ha, visual rating after 12 to 14 days, scale 0 to 100 (0 no effect, 100 complete control)

Cc1nn(C(C)C)nc1C(=O)Nc1cccc(C(=O)N(C)C)c1 [Compound 404]
Plant response rating (0 to 100 scale), Barnyardgrass (barnyardgrass [1]; [10]): 70
Barnyardgrass plant response rating (barnyardgrass [1]; [11]): 10
Barnyardgrass plant response rating (barnyardgrass [1]; Postemergence, 500 g ai/ha): 10
Plant response rating (0 to 100 scale), Surinam Grass (Surinam grass; [10]): 40
Surinam Grass plant response rating (Surinam grass; [11]): 0
Surinam Grass plant response rating (Surinam grass; Postemergence, 500 g ai/ha): 10
Plant response rating (0 to 100 scale), Cocklebur (cocklebur; [10]): 40
Cocklebur plant response rating (cocklebur; [11]): 10
Cocklebur plant response rating (cocklebur; Postemergence, 500 g ai/ha): 30
Plant response rating (0 to 100 scale), Corn (corn; [10]): 0
Corn plant response rating (corn; [11]): 0
Corn plant response rating (corn; Postemergence, 500 g ai/ha): 10
Plant response rating (0 to 100 scale), Crabgrass, Large (large crabgrass; [10]): 70
Crabgrass, Large plant response rating (large crabgrass; [11]): 0
Crabgrass, Large plant response rating (large crabgrass; Postemergence, 500 g ai/ha): 10
Plant response rating (0 to 100 scale), Foxtail, Giant (giant foxtail; [10]): 30
Foxtail, Giant plant response rating (giant foxtail; [11]): 10
Foxtail, Giant plant response rating (giant foxtail; Postemergence, 500 g ai/ha): 40
Plant response rating (0 to 100 scale), Lambsquarters (lambsquarters; [10]): 90
Lambsquarters plant response rating (lambsquarters; [11]): 60
Lambsquarters plant response rating (lambsquarters; Postemergence, 500 g ai/ha): 80
Plant response rating (0 to 100 scale), Morningglory (morningglory; [10]): 60
Morningglory plant response rating (morningglory; [11]): 20
Morningglory plant response rating (morningglory; Postemergence, 500 g ai/ha): 70
Plant response rating (0 to 100 scale), Pigweed (pigweed; [10]): 70
Pigweed plant response rating (pigweed; [11]): 10
Pigweed plant response rating (pigweed; Postemergence, 500 g ai/ha): 30
Plant response rating (0 to 100 scale), Velvetleaf (velvetleaf; [10]): 20
Velvetleaf plant response rating (velvetleaf; [11]): 30
Velvetleaf plant response rating (velvetleaf; Postemergence, 500 g ai/ha): 30
Blackgrass plant response rating (blackgrass; [11]): 10
Blackgrass plant response rating (blackgrass; Postemergence, 500 g ai/ha): 30
Wheat plant response rating (wheat; 125 g ai/ha, visual rating, scale 0 (no effect) to 100 (complete control), postemergence): 0
Wheat plant response rating (wheat; 500 g ai/ha, scale 0 to 100, 0 no effect, 100 complete control, preemergence): 100
Wheat plant response rating (wheat; Postemergence, 500 g ai/ha, scale 0 (no effect) to 100 (complete control)): 0
Oat, Wild plant response rating (wild oat; [11]): 0
Oat, Wild plant response rating (wild oat; Postemergence, 500 g ai/ha): 10
Rice plant response rating (rice [2]): 60
Sedge, Umbrella plant response rating [3]: 90
Ducksalad plant response rating (ducksalad [4]): 90
Barnyardgrass plant response rating (barnyardgrass [5]): 90
Rice plant response rating (rice [6]; 62 g ai/ha, scale 0 to 100): 0
Rice plant response rating (rice [6]; [12]): 0
Rice plant response rating (rice [6]; [13]): 45
Plant response rating, Rice (rice [6]; [14]): 50
Sedge, Umbrella plant response rating ([7]; 62 g ai/ha, scale 0 to 100): 70
Sedge, Umbrella plant response rating [7, 12]: 75
Sedge, Umbrella plant response rating [7, 13]: 80
Plant response rating, Sedge, Umbrella [7, 14]: 85
Ducksalad plant response rating (ducksalad [8]; 62 g ai/ha, scale 0 to 100): 10
Ducksalad plant response rating (ducksalad [8]; [12]): 10
Ducksalad plant response rating (ducksalad [8]; [13]): 20
Plant response rating, Ducksalad (ducksalad [8]; [14]): 30
Barnyardgrass plant response rating (barnyardgrass [9]; 62 g ai/ha, scale 0 to 100 (0 no effect, 100 complete control)): 0
Barnyardgrass plant response rating (barnyardgrass [9]; [12]): 0
Barnyardgrass plant response rating (barnyardgrass [9]; [13]): 20
Plant response rating, Barnyardgrass (barnyardgrass [9]; [14]): 30
